The values below come from the METLIN SMRT retention time set (Domingo-Almenara et al. 2019).

The data set can be described thus: gradient 5% acetonitrile 3 min, to 50% in 2 min, to 85% in 15 min, held 3 min, 100 µL/min. As to conditions: column: Zorbax Extend-C18 2.1 x 50 mm; eluents: water / acetonitrile, 0.1% formic acid. An outline of the steps:
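Retention times come from adduct peaks that were picked computationally and then checked by hand. The standards, pure and pooled in mixtures of ~100 molecules, were run on a Zorbax Extend-C18 column (2.1 × 50 mm, 1.8 μm) at 100 μL/min with water and acetonitrile, each with 0.1% formic acid. Detection was by quadrupole time-of-flight mass spectrometry in positive and negative ionization mode, with a dead volume of 40 μL and a dwell volume of 900 μL.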
`CCOc1ccccc1C(=O)N1CCCCC1c1nncn1CC1CC1` (centres undefined): the RP-LC retention time worked out at 746 s.
As for `CCOCCCNC(=O)CCC(=O)N1CC2CCCN2c2ccccc21` (centres undefined), the figure is 729 s; as for `CC(NC(=O)c1cc(-c2ccc(Cl)cc2)cn1C)c1cccnc1` (centres undefined), 726 s.
As for `COc1cc(OC)cc(-c2nnc(Cc3nc(-c4ccccc4Cl)no3)o2)c1`, the figure is 1020 s; as for `COc1cc(NC(=O)Cc2csc3nc(-c4ccc(Cl)cc4)cn23)cc(OC)c1OC`, 875 s; as for `Cc1[nH]c2ccccc2c1C(=O)C(=O)NC1CC(=O)N(c2ccccc2)C1` (centres undefined), 711 s.
As for `Cc1nn(-c2ccc(-c3ccccc3)nn2)c(C)c1S(=O)(=O)NCCC(C)C`, the figure is 1130 s; as for `Cn1cc(-c2ccncc2)cc1C(=O)NCc1cccc(F)c1`, 630 s; as for `Cc1cc(C(=O)Nc2nc(-c3ccc(F)cc3)c(C)s2)no1`, 976 s.
The molecule `COc1ccc(C)c2sc(N(CCN(C)C)C(=O)c3cnn(-c4ccccc4)c3C)nc12` came in with an RP-LC retention time of 632 s.
The result for `O=C(C1CCCN(c2cnc3nccnc3c2)C1)N1CCN(c2ccccc2F)CC1` (centres undefined) reads 778 s; that for `CCC(=O)N1CCc2cc(N3CC(C(=O)NCc4ccc(F)cc4)CC3=O)ccc21` (centres undefined), 725 s; that for `CN1C(=O)C2(CCN(C(=O)c3ccc(F)cc3)C2)c2ccccc21` (centres undefined), 764 s.
As for `Cc1cc(NC(=O)c2cccc(NS(=O)(=O)c3ccc(F)cc3)c2)no1`, the figure is 736 s.
The result for `O=C(Nc1ccc2c(c1)OCCO2)N1CCCn2nc(-c3cccs3)cc2C1` reads 777 s; that for `O=C(Cn1nc(N2CCCC2)c2ccccc2c1=O)Nc1ccc(F)c(Cl)c1`, 1000 s; that for `COc1cccc(-c2nc(C3CCN(S(=O)(=O)c4cc(C)ccc4C)CC3)no2)c1`, 1210 s.
In turn, `O=C(CN1C(=O)CCc2cc(S(=O)(=O)N3CCCCC3)ccc21)NC1CCCc2ccccc21` (centres undefined) showed an RP-LC retention time of 935 s.
Consider `O=C(CCc1ccccc1)Nc1ccc2[nH]c(=O)oc2c1`, for which the RP-LC retention time worked out at 713 s.
On to `Cn1c(=O)sc2cc(S(=O)(=O)N3CCC(C(=O)NCc4ccccc4Cl)CC3)ccc21`, for which the RP-LC retention time came out at 883 s.
The result for `Cc1csc(-c2ccc(N3CCN(C(=O)c4ccc(F)c(F)c4)CC3)nc2)n1` reads 846 s; that for `CCN1C(=O)Cc2ccccc2C1C(=O)NCc1cc(F)ccc1F` (centres undefined), 753 s; that for `O=C(c1ccc(-c2cncnc2)nc1)N1CCN(c2ccccc2)CC1`, 716 s.
The result for `COc1cccc(CNC(=O)c2cn(-c3cc(N4CCOCC4)ncn3)cn2)c1` reads 752 s.
The result for `CC(C)NC(=O)Cc1cn2cc(Br)ccc2n1` reads 556 s.
The molecule `O=c1c(=O)n(-c2ccc(Cl)cc2)ccn1Cc1nc(-c2ccccc2)no1` came in with an RP-LC retention time of 860 s.
As for `CC(=O)N1CCc2cc(-c3ccc(C(=O)NCCN4CCCCC4)cc3)ccc21`, the figure is 616 s.
The result for `Cc1cccc(OCc2nc(-c3ccc4nnn(C)c4c3)no2)c1` reads 985 s.
The result for `CC(C)(C)NC(=O)N[C@H](C(=O)N1C[C@H]2[C@@H]([C@H]1C(=O)NC(CC1CCC1)C(=O)C(N)=O)C2(C)C)C(C)(C)C` (some centres undefined) reads 1020 s.
With `COc1ccc(CNC(=O)c2ccc(N3CCCS3(=O)=O)cc2)cc1OC`, the RP-LC retention time was 652 s.
The result for `CCS(=O)(=O)Nc1ccc(C2(C(=O)NCC(C)C)CCCCC2)cc1` reads 879 s; that for `CN1CC(=O)N(CC(=O)N2CCN(c3ccc(Cl)cc3)CC2)c2ccccc2C1=O`, 746 s.
The result for `O=C(CC1CCOCC1)N1CCN(C(=O)c2ccco2)CC1` reads 612 s; that for `CC(C)n1cnc2cc(CNC(=O)Cc3ccccc3F)ccc21`, 623 s.
The result for `COc1ccc(-c2nnc(N3CCC(C(=O)NC4CCCCC4)CC3)o2)cc1` reads 811 s; that for `CS(=O)(=O)N1CCC(C(=O)Nc2ccc3c(c2)N(C(=O)C2CCCO2)CC3)CC1` (centres undefined), 631 s; that for `CCCn1cc(CCNC(=O)c2ccc(F)cc2Cl)c2cccnc21`, 788 s.
Molecule `CCCN(C(=O)CC)c1nc(-c2cccc(Cl)c2)cs1` registered an RP-LC retention time of 1320 s.
The result for `Cn1ccc2c(cc(C(=O)NCc3ccccc3F)n2C)c1=O` reads 678 s; that for `CN(C)C(=O)c1n[nH]c2c1CN(C(=O)c1ccc(C(F)(F)F)cc1)CC2`, 674 s; that for `O=C(Nc1cccc(F)c1)C1(CCO)CCN(c2ncccn2)C1` (centres undefined), 639 s.
Take `O=C(Nc1ccc2c(c1)OCCO2)N1CCCC(CN2CCOCC2)CC1` (centres undefined): the RP-LC retention time came out at 590 s.
For the molecule `Cc1ccccc1NC(=O)C1CCCN(c2ccc3cc(S(=O)(=O)N4CCCCC4)ccc3n2)C1` (centres undefined), the RP-LC retention time turned out to be 835 s.
As for `O=S(=O)(c1ccc2c(c1)CCCC2)N1CCCn2nc(-c3ccncc3)cc2C1`, the figure is 706 s; as for `O=C(NC(C(=O)N1CCCc2ccccc21)c1ccccc1)c1cnccn1` (centres undefined), 932 s; as for `COCCCNC(=O)N1CCCC1c1nc(-c2cccc(C)c2)no1` (centres undefined), 810 s.
As for `Cc1ccc(-c2noc(C3CCCN3C(=O)C(NS(=O)(=O)c3ccc(C)cc3)C(C)C)n2)cc1` (centres undefined), the figure is 1150 s; as for `COc1ccc(-c2nn(-c3ccccc3)cc2C#N)cc1[N+](=O)[O-]`, 1010 s; as for `Cc1noc(C)c1-c1ccc(S(=O)(=O)NC2CC2)cc1`, 786 s.
Molecule `COc1ccc(-c2noc(C3CCCN3C(=O)c3ccco3)n2)cc1` (centres undefined) had an RP-LC retention time of 809 s.
The result for `CCc1ccc2nc(NCc3ccccn3)sc2c1` reads 621 s; that for `CCc1cc(=O)n(CC(=O)Nc2ccc(C)c(Cl)c2)c(N2CCOCC2)n1`, 871 s.
As for `Cc1cc(S(=O)(=O)N2CCCC2c2nc(-c3ccc(Cl)cc3)no2)ccc1F` (centres undefined), the figure is 1240 s.
`O=C1c2cc(NC(=O)C3(c4cccs4)CCCC3)ccc2OCCC2CCCCN12` (centres undefined) registered an RP-LC retention time of 974 s.
As for `O=C(Nc1ccc(F)cc1F)Nc1c(-c2ccccc2)nc2ccccn12`, the figure is 660 s; as for `O=C([C@@H]1C[C@H](F)CN1C(=O)Nc1cccc(Br)c1)N1CCCCC1`, 753 s.
The result for `Cc1nc2ccc3nc(NC(=O)COc4ccccc4F)sc3c2s1` reads 877 s.
The result for `O=C1CC(C(=O)N(Cc2cccnc2)c2nc3ccccc3s2)CN1c1ccccc1` (centres undefined) reads 695 s.
As for `Cc1cccc(-c2noc(Cn3ccn(Cc4ccc(Cl)cc4)c(=O)c3=O)n2)c1`, the RP-LC retention time came to 960 s.
